Measured values from patent US20230045421A1 (priority 2018, published 2023).
Read-outs that look alike come from different tables or passages of the source.

System: HBV rcDNA
Assay: HepDE19 assay with bDNA quantitation of HBV rcDNA
Format: cell-based, hepatitis B virus
Summary of the method: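 HepDE19 cells (HepG2-derived, Tet-regulated HBV replication) were deprived of tetracycline and then exposed to compounds for 7 days at 37 °C in 0.5% DMSO, 8-point titration from 25 μM. rcDNA was quantified by bDNA and EC50/EC90 came from 4-parameter fits. CC50 was measured by CellTiter-Glo ATP content on replicate plates after 4 days.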

[1] = HepDE19 assay, inhibition of formation of relaxed circular DNA (rcDNA), bDNA quantitation, read-out: DE-19bDNA EC50
[2] = read-out: DE-19bDNA EC50, HepDE19 assay, inhibition of formation of relaxed circular DNA (rcDNA), bDNA quantitation
[3] = Hepatitis B virus, HepDE19, read-out: DE-19bDNA EC50 (μM), HepDE19 assay, inhibition of formation of relaxed circular DNA (rcDNA), bDNA quantitation

| Structure (SMILES) | EC50 [1] [µM] | other results |
| --- | --- | --- |
| CC(c1c[nH]c(=O)c2cc(F)c(F)cc12)N(C)C(=O)Nc1ccc(F)c(C#N)c1 (single isomer, unassigned) [Compound 429, 3-(3-Cyano-4-fluorophenyl)-1-(1-(6,7-difluoro-1-oxo-1,2-dihydroisoquinolin-4-yl)ethyl)-1-methylurea] | 0.01 | – |
| CC(c1c[nH]c(=O)c2cc(F)c(F)cc12)N(C)C(=O)Nc1cccc(F)c1F (single isomer, unassigned) [Compound 430, 1-(1-(6,7-Difluoro-1-oxo-1,2-dihydroisoquinolin-4-yl)ethyl)-3-(2,3-difluorophenyl)-1-methylurea] | 12 | – |
| CC(c1c[nH]c(=O)c2cc(F)c(F)cc12)N(C)C(=O)Nc1cccc(F)c1F (single isomer, unassigned) [Compound 431, 1-(1-(6,7-Difluoro-1-oxo-1,2-dihydroisoquinolin-4-yl)ethyl)-3-(2,3-difluorophenyl)-1-methylurea] | 0.29 | – |
| CC(c1c[nH]c(=O)c2c(F)c(F)ccc12)N(C)C(=O)Nc1ccc(F)cc1 (single isomer, unassigned) [Compound 432, 1-(1-(7,8-Difluoro-1-oxo-1,2-dihydroisoquinolin-4-yl)ethyl)-3-(4-fluorophenyl)-1-methylurea] | 11.2 | – |
| CC(c1c[nH]c(=O)c2c(F)c(F)ccc12)N(C)C(=O)Nc1ccc(F)cc1 (single isomer, unassigned) [Compound 433, 1-(1-(7,8-Difluoro-1-oxo-1,2-dihydroisoquinolin-4-yl)ethyl)-3-(4-fluorophenyl)-1-methylurea] | 0.07 | – |
| CC(c1c[nH]c(=O)c2c(F)c(F)ccc12)N(C)C(=O)Nc1ccc(F)c(F)c1 (single isomer, unassigned) [Compound 434, 1-(1-(7,8-Difluoro-1-oxo-1,2-dihydroisoquinolin-4-yl)ethyl)-3-(3,4-difluorophenyl)-1-methylurea] | 3.2 | – |
| CC(c1c[nH]c(=O)c2c(F)c(F)ccc12)N(C)C(=O)Nc1ccc(F)c(F)c1 (single isomer, unassigned) [Compound 435, 1-(1-(7,8-Difluoro-1-oxo-1,2-dihydroisoquinolin-4-yl)ethyl)-3-(3,4-difluorophenyl)-1-methylurea] | 0.24 | – |
| CC(c1c[nH]c(=O)c2c(F)c(F)ccc12)N(C)C(=O)Nc1ccccc1 (single isomer, unassigned) [Compound 436, 1-(1-(7,8-difluoro-1-oxo-1,2-dihydroisoquinolin-4-yl)ethyl)-1-methyl-3-phenylurea] | – | EC50 [2]: 19.2 µM |
| CC(c1c[nH]c(=O)c2c(F)c(F)ccc12)N(C)C(=O)Nc1ccccc1 (single isomer, unassigned) [Compound 437, 1-(1-(7,8-difluoro-1-oxo-1,2-dihydroisoquinolin-4-yl)ethyl)-1-methyl-3-phenylurea] | – | EC50 [2]: 0.14 µM |
| CC(c1c[nH]c(=O)c2cc(F)c(F)cc12)N(C)C(=O)Nc1cc(Cl)c(F)c(Cl)c1 (single isomer, unassigned) [Compound 438, 3-(3,5-Dichloro-4-fluorophenyl)-1-(1-(6,7-difluoro-1-oxo-1,2-dihydroisoquinolin-4-yl)ethyl)-1-methylurea] | 6.5 | – |
| CC(c1c[nH]c(=O)c2cc(F)c(F)cc12)N(C)C(=O)Nc1cc(Cl)c(F)c(Cl)c1 (single isomer, unassigned) [Compound 439, 3-(3,5-Dichloro-4-fluorophenyl)-1-(1-(6,7-difluoro-1-oxo-1,2-dihydroisoquinolin-4-yl)ethyl)-1-methylurea] | 0.12 | – |
| Cc1cc(NC(=O)N(C)C(C)c2c[nH]c(=O)c3c(F)c(F)ccc23)ccc1F (single isomer, unassigned) [Compound 440, 1-(1-(7,8-Difluoro-1-oxo-1,2-dihydroisoquinolin-4-yl)ethyl)-3-(4-fluoro-3-methylphenyl)-1-methylurea] | 0.54 | – |
| Cc1cc(NC(=O)N(C)C(C)c2c[nH]c(=O)c3c(F)c(F)ccc23)ccc1F (single isomer, unassigned) [Compound 441, 1-(1-(7,8-Difluoro-1-oxo-1,2-dihydroisoquinolin-4-yl)ethyl)-3-(4-fluoro-3-methylphenyl)-1-methylurea] | 0.008 | – |
| CC(c1c[nH]c(=O)c2c(F)c(F)ccc12)N(C)C(=O)Nc1cc(F)c(F)c(F)c1 (single isomer, unassigned) [Compound 442, 1-(1-(7,8-Difluoro-1-oxo-1,2-dihydroisoquinolin-4-yl)ethyl)-1-methyl-3-(3,4,5-trifluorophenyl)urea] | 4.7 | – |
| CC(c1c[nH]c(=O)c2c(F)c(F)ccc12)N(C)C(=O)Nc1cc(F)c(F)c(F)c1 (single isomer, unassigned) [Compound 443, 1-(1-(7,8-Difluoro-1-oxo-1,2-dihydroisoquinolin-4-yl)ethyl)-1-methyl-3-(3,4,5-trifluorophenyl)urea] | 0.04 | – |
| CC(c1c[nH]c(=O)c2c(F)c(F)ccc12)N(C)C(=O)Nc1ccc(Cl)cc1 (single isomer, unassigned) [Compound 444, 3-(4-Chlorophenyl)-1-(1-(7,8-difluoro-1-oxo-1,2-dihydroisoquinolin-4-yl)ethyl)-1-methylurea] | – | EC50 [2]: 17 µM |
| CC(c1c[nH]c(=O)c2c(F)c(F)ccc12)N(C)C(=O)Nc1ccc(Cl)cc1 (single isomer, unassigned) [Compound 445, 3-(4-Chlorophenyl)-1-(1-(7,8-difluoro-1-oxo-1,2-dihydroisoquinolin-4-yl)ethyl)-1-methylurea] | – | EC50 [2]: 0.22 µM |
| CC(C)CN(C(=O)Nc1ccc(F)c(Cl)c1)C(C)c1c[nH]c(=O)c2c(F)cc(F)cc12 (single isomer, unassigned) [Compound 446, 3-(3-Chloro-4-fluorophenyl)-1-(1-(6,8-difluoro-1-oxo-1,2-dihydroisoquinolin-4-yl)ethyl)-1-isobutylurea] | 0.59 | – |
| CC(c1c[nH]c(=O)c2c(F)c(F)ccc12)N(C)C(=O)Nc1cc(Cl)cc(Cl)c1 (single isomer, unassigned) [Compound 447, 3-(3,5-Dichlorophenyl)-1-(1-(7,8-difluoro-1-oxo-1,2-dihydroisoquinolin-4-yl)ethyl)-1-methylurea] | – | EC50 [2]: 6.5 µM |
| CC(c1c[nH]c(=O)c2c(F)c(F)ccc12)N(C)C(=O)Nc1cc(Cl)cc(Cl)c1 (single isomer, unassigned) [Compound 448, 3-(3,5-Dichlorophenyl)-1-(1-(7,8-difluoro-1-oxo-1,2-dihydroisoquinolin-4-yl)ethyl)-1-methylurea] | – | EC50 [2]: 0.07 µM |
| CC(c1c[nH]c(=O)c2c(F)c(F)ccc12)N(C)C(=O)Nc1ccncc1 (single isomer, unassigned) [Compound 449, 1-(1-(7,8-Difluoro-1-oxo-1,2-dihydroisoquinolin-4-yl)ethyl)-1-methyl-3-(pyridin-4-yl)urea] | – | EC50 [3]: 15 µM |
| CC(c1c[nH]c(=O)c2c(F)c(F)ccc12)N(C)C(=O)Nc1cccnc1 (single isomer, unassigned) [Compound 450, 1-(1-(7,8-Difluoro-1-oxo-1,2-dihydroisoquinolin-4-yl)ethyl)-1-methyl-3-(pyridin-3-yl)urea] | – | EC50 [3]: 5.4 µM |
| CC(c1c[nH]c(=O)c2c(F)c(F)ccc12)N(C)C(=O)Nc1cc(Cl)c(F)c(Cl)c1 (single isomer, unassigned) [Compound 451, 3-(3,5-Dichloro-4-fluorophenyl)-1-(1-(7,8-difluoro-1-oxo-1,2-dihydroisoquinolin-4-yl)ethyl)-1-methylurea] | 3.2 | – |
| CC(c1c[nH]c(=O)c2c(F)c(F)ccc12)N(C)C(=O)Nc1cc(Cl)c(F)c(Cl)c1 (single isomer, unassigned) [Compound 452, 3-(3,5-Dichloro-4-fluorophenyl)-1-(1-(7,8-difluoro-1-oxo-1,2-dihydroisoquinolin-4-yl)ethyl)-1-methylurea] | 0.047 | – |
| CC(c1c[nH]c(=O)c2c(F)c(F)ccc12)N(C)C(=O)NCc1ccccc1 (single isomer, unassigned) [Compound 453, 3-Benzyl-1-(1-(7,8-difluoro-1-oxo-1,2-dihydroisoquinolin-4-yl)ethyl)-1-methylurea] | – | EC50 [3]: 0.29 µM |
| CC(c1c[nH]c(=O)c2c(F)c(F)ccc12)N(C)C(=O)Nc1ccnc(Cl)c1 (single isomer, unassigned) [Compound 454, 3-(2-Chloropyridin-4-yl)-1-(1-(7,8-difluoro-1-oxo-1,2-dihydroisoquinolin-4-yl)ethyl)-1-methylurea] | – | EC50 (Hepatitis B virus, HepDE19, HepDE19 assay, inhibition of formation of relaxed circular DNA (rcDNA), bDNA quantitation, read-out: DE-19bDNA EC50): 0.17 µM |
| CC(c1c[nH]c(=O)c2c(F)c(F)ccc12)N(C)C(=O)Nc1cccc(F)c1 (single isomer, unassigned) [Compound 455, 1-(1-(7,8-Difluoro-1-oxo-1,2-dihydroisoquinolin-4-yl)ethyl)-3-(3-fluorophenyl)-1-methylurea] | – | EC50 [2]: 6.3 µM |
| CC(c1c[nH]c(=O)c2c(F)c(F)ccc12)N(C)C(=O)Nc1cccc(F)c1 (single isomer, unassigned) [Compound 456, 1-(1-(7,8-Difluoro-1-oxo-1,2-dihydroisoquinolin-4-yl)ethyl)-3-(3-fluorophenyl)-1-methylurea] | – | EC50 [2]: 0.051 µM |
| CC(c1c[nH]c(=O)c2c(F)c(F)ccc12)N(C)C(=O)Nc1ccccc1F (single isomer, unassigned) [Compound 457, 1-(1-(7,8-Difluoro-1-oxo-1,2-dihydroisoquinolin-4-yl)ethyl)-3-(2-fluorophenyl)-1-methylurea] | – | EC50 [3]: 0.74 µM |
| CC(c1c[nH]c(=O)c2c(F)c(F)ccc12)N(C)C(=O)Nc1cccc(F)c1F (single isomer, unassigned) [Compound 458, 1-(1-(7,8-Difluoro-1-oxo-1,2-dihydroisoquinolin-4-yl)ethyl)-3-(2,3-difluorophenyl)-1-methylurea] | 14 | – |
